# Test results: US5001064A, “Phosphatidylinositol 4-kinase” (Washington University, priority 1988, dated 1991)
# Entries after “also recorded” stand apart in the source; their conditions may differ.
# Key:
# Format in all cases: biochemical, bovine
# PtdIns 4-kinase [1] = target: T1, PtdIns 4-kinase (Bos taurus, UniProt A6QLN5); assay: Effect of potential inhibitors on PtdIns 4-kinase activity; conditions: for effectiveness as inhibitor / relative activity at 1000 µM / Relative activity with potential inhibitor: PtdIns 0.1 mg/ml; for effectiveness as inhibitor: soluble compounds approximately 10-fold above the PtdIns concentration; for relative activity at 1000 µM: read-out: Relative activity with potential inhibitor, heading: Relative activity with potential inhibitor; for inhibition: approximately 5-fold molar excess over PtdIns (0.1 mg/ml)
# T1 construct: It constitutes the major PtdIns 4-kinase activity of bovine uteri; from tissue; host or cells: bovine uterus (acetone powder, purified over ammonium sulfate, Mono Q, S-Sepharose, Mono Q, Mono P and hydroxylapatite)
# T1 sequence (A6QLN5 1-479): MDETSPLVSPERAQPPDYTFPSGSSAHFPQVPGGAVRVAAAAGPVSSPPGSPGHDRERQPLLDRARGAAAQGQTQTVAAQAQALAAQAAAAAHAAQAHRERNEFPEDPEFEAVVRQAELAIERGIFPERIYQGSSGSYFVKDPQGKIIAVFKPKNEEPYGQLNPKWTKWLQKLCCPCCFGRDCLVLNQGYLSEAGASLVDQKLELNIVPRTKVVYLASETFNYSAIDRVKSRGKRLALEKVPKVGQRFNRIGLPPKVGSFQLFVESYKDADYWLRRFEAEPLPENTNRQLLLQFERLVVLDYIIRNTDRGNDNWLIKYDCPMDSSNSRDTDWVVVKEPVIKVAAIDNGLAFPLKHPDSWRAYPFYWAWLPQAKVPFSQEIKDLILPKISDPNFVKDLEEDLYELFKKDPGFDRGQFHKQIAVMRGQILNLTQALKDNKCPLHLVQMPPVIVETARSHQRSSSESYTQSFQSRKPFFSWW
# Experimental: (§1) PtdIns 4-kinase activity was assayed in 60 μl at 30° C. in 20 mM BisTris-HCl (pH 7.0), 10 mM MgCl2, 1.0% Triton X-100, 0.25 mg/ml phosphatidylinositol, and 150 μM ATP (1.25 μCi[-^32 P]ATP), unless otherwise noted. The reaction was terminated by the addition of 12 μl of cold HCl, 120 μl of cold methanol, 150 μl of chloroform, and 40 μl of H2 O. The extracted samples were centrifuged at 12,000 × g for 1 min. and the aqueous layer removed and discarded. When needed, the organic phase was washed with 40 μl of cold methanol and 40 μl of cold 1.0 N HCl, centrifuged at 12,000 × g, and the aqueous layer was removed. The organic phase was then dried under vacuum in a Savant speed-vac, resuspended in 40 μl of chloroform/methanol (2:1), and chromatographed on potassium oxalate-impregnated Silica Gel 60 thin layer chromatography plates (TLC). The solvent system used consisted of chloroform/methanol/ammonium hydroxide/water (51:39.6:3:8.4). For two-dimensional thin layer chromatography, the preceding solvent system was used for the first dimension, and chloroform/methanol/acetic acid/water (50:39:1:10) was used for the second dimension. Standards were visualized by exposing the TLC plate to iodine vapor. The reaction product, phosphatidylinositol 4-phosphate, was visualized by autoradiography, and the corresponding area of the TLC plate was scraped and quantitated by Cherenkov counting. […] For tests utilizing [^3 H]PtdIns, the corresponding areas of the TLC plates were scraped and the silica powder was suspended in a gel of Aquasol/H2 O (4:1) before counting. All assays (except column fractions) were done in duplicate or triplicate.
# Various PtdIns-related compounds were tested as possible inhibitors of this purified PtdIns 4-kinase. A concentration of PtdIns of 0.1 mg/ml was used in these tests to accentuate possible competitive inhibition by potential inhibitors (Table IV).
# PtdIns 4-kinase [2] = target: T1, PtdIns 4-kinase; assay: Specificity of PtdIns 4-kinase for a lipid substrate; conditions: for Relative activity with lipid added: lipid 0.25 mg/ml, organic extractable label, background subtracted, PtdIns (soybean) = 100; for phosphorylation of lipid by the purified enzyme: standard assay buffer with the indicated lipid
# Experimental: PtdIns 4-kinase activity was assayed in 60 μl at 30° C. in 20 mM BisTris-HCl (pH 7.0), 10 mM MgCl2, 1.0% Triton X-100, 0.25 mg/ml phosphatidylinositol, and 150 μM ATP (1.25 μCi[-^32 P]ATP), unless otherwise noted. The reaction was terminated by the addition of 12 μl of cold HCl, 120 μl of cold methanol, 150 μl of chloroform, and 40 μl of H2 O. The extracted samples were centrifuged at 12,000 × g for 1 min. and the aqueous layer removed and discarded. When needed, the organic phase was washed with 40 μl of cold methanol and 40 μl of cold 1.0 N HCl, centrifuged at 12,000 × g, and the aqueous layer was removed. The organic phase was then dried under vacuum in a Savant speed-vac, resuspended in 40 μl of chloroform/methanol (2:1), and chromatographed on potassium oxalate-impregnated Silica Gel 60 thin layer chromatography plates (TLC). The solvent system used consisted of chloroform/methanol/ammonium hydroxide/water (51:39.6:3:8.4). For two-dimensional thin layer chromatography, the preceding solvent system was used for the first dimension, and chloroform/methanol/acetic acid/water (50:39:1:10) was used for the second dimension. Standards were visualized by exposing the TLC plate to iodine vapor. The reaction product, phosphatidylinositol 4-phosphate, was visualized by autoradiography, and the corresponding area of the TLC plate was scraped and quantitated by Cherenkov counting. This assay was linear with respect to both protein concentration and time. For tests utilizing [^3 H]PtdIns, the corresponding areas of the TLC plates were scraped and the silica powder was suspended in a gel of Aquasol/H2 O (4:1) before counting. All assays (except column fractions) were done in duplicate or triplicate.
# The specificity of PtdIns 4-kinase for lipid substrates was also examined using standard assay buffer containing […] of the indicated lipid. After extraction the organic phase was washed three times, dried in vacuo, and the organic extractable label was quantitated. Control reactions (no lipid) established background levels which were then subtracted from the experimentally derived values (Table III). […] The sensitivity of the above technique was limited and appeared to show little or no activity with lyso-PtdIns; however, subsequent TLC of these reactions established that the enzyme would phosphorylate lyso-PtdIns about 10% as well as soybean Ptdlns. […] Except for lyso-Ptdlns, the results presented in Table III were confirmed by thin layer chromatography.
# PtdIns 4-kinase [3] = target: T1, PtdIns 4-kinase; assay: Specificity of PtdIns 4-kinase for a nucleotide phosphoryl donor ([3H]PtdIns as substrate); conditions: for utilization as phosphoryl donor (words): [3H]PtdIns as substrate; for activity at 150 µM: read-out: Relative activity with nucleotide donor
# Experimental: as §1
# [4] = nucleotide donor 150 μM, ATP = 100
compound,measurement,setting,value
O=P(O)(OCC(O)CO)O[C@@H]1[C@H](O)[C@H](O)[C@@H](O)[C@H](O)[C@H]1O (stereo partly drawn) [Glycerophospho-D-myo-inositol],effectiveness as inhibitor,PtdIns 4-kinase [1],ineffective as inhibitors
same,relative activity at 1000 µM,PtdIns 4-kinase [1]; inhibitor 1.0 mM,86%
L-α-lysophosphatidylinositol [Lyso-PtdIns],"phosphorylation relative to soybean PtdIns, by subsequent TLC",PtdIns 4-kinase [2]; TLC of the reactions,about 10%
same,Relative activity with lipid added,PtdIns 4-kinase [2],0%
"Nc1ncnc2c1ncn2[C@H]1CC[C@@H](COP(=O)(O)OP(=O)(O)OP(=O)(O)O)O1 [ddATP, 2,3-Dideoxy-ATP]",utilization as phosphoryl donor (words),"PtdIns 4-kinase [3]; listed as 2,3-Dideoxy-ATP",partially effective
same,utilization as phosphoryl donor (words),"PtdIns 4-kinase [3]; listed as 2,3-dideoxy-ATP",to a lesser degree will utilize
same,activity at 150 µM,PtdIns 4-kinase [3]; [4],39%
Nc1nc2c(ncn2[C@@H]2O[C@H](COP(=O)(O)OP(=O)(O)OP(=O)(O)O)[C@@H](O)[C@H]2O)c(=O)[nH]1 [GTP],utilization as phosphoryl donor (words),PtdIns 4-kinase [3],No PtdIns-4-P was observed; also recorded: No PtdIns-4-P 5-kinase activity was present
same,activity at 150 µM,PtdIns 4-kinase [3]; [4],5%
Cc1cn([C@H]2C[C@H](O)[C@@H](COP(=O)(O)OP(=O)(O)OP(=O)(O)O)O2)c(=O)[nH]c1=O [TTP],Relative activity with nucleotide donor,PtdIns 4-kinase [3]; [4],3
L-α-phosphatidyl-L-serine [Phosphatidylserine],Relative activity with lipid added,PtdIns 4-kinase [2],1%
same,phosphorylation of lipid by the purified enzyme,PtdIns 4-kinase [2],no phosphorylation
phosphatidylinositol 4-phosphate [PtdIns-4-P],effectiveness as inhibitor,PtdIns 4-kinase [1],"Neither PtdIns-4-P or PtdIns-4,5-P2 were effective inhibitors"
same,inhibition,PtdIns 4-kinase [1],42%
same,Relative activity with potential inhibitor,PtdIns 4-kinase [1]; inhibitor 0.02 mg/ml,99%
same,Relative activity with potential inhibitor,PtdIns 4-kinase [1]; inhibitor 0.10 mg/ml,105%
same,Relative activity with potential inhibitor,PtdIns 4-kinase [1]; inhibitor 0.50 mg/ml,58%
same,Relative activity with lipid added,PtdIns 4-kinase [2],0%
same,phosphorylation of lipid by the purified enzyme,PtdIns 4-kinase [2],lacked detectable PtdIns-4-P 5-kinase activity
Nc1ncnc2c1ncn2[C@@H]1O[C@H](COP(=O)(O)OP(=O)(O)O)[C@@H](O)[C@H]1O [ADP],utilization as phosphoryl donor (words),PtdIns 4-kinase [3],No PtdIns-4-P was observed; also recorded: No PtdIns-4-P 5-kinase activity was present
same,activity at 150 µM,PtdIns 4-kinase [3]; [4],12%
"OC1C(O)C(O)C2(CO2)C(O)C1O (stereo not drawn) [Inositol 2,2'-anhydro-2-C-hydroxymethyl]",effectiveness as inhibitor,PtdIns 4-kinase [1],ineffective as inhibitors
same,relative activity at 1000 µM,PtdIns 4-kinase [1]; inhibitor 1.0 mM,118%
Phosphatidylinositol [PtdIns (bovine)],Relative activity with lipid added,PtdIns 4-kinase [2],110%
same,phosphorylation of lipid by the purified enzyme,PtdIns 4-kinase [2],able to phosphorylate
CCCCC/C=C\C/C=C\C/C=C\C/C=C\CCCC(=O)O[C@@H](CO)COC(=O)CCCCCCCCCCCCCCCCC [1-Stearoyl-2-arachidonoyl-sn-glycerol],Relative activity with lipid added,PtdIns 4-kinase [2],0%
same,phosphorylation of lipid by the purified enzyme,PtdIns 4-kinase [2],lacked diacylglycerol kinase activity
O=P(O)(O)OC1[C@H](O)[C@H](O)C(O)[C@H](O)[C@H]1O (stereo partly drawn) [Ins-1-P],effectiveness as inhibitor,PtdIns 4-kinase [1],ineffective as inhibitors
same,Relative activity with potential inhibitor,PtdIns 4-kinase [1]; inhibitor 1.0 mM,89%
L-α-phosphatidylcholine,Relative activity with lipid added,PtdIns 4-kinase [2],0%
same,phosphorylation of lipid by the purified enzyme,PtdIns 4-kinase [2],no phosphorylation
"CCCCCCCCCCCCCCCC(=O)OC[C@H](COP(=O)(O)O[C@H]1[C@H](O)[C@@H](O)[C@H](OP(=O)(O)O)[C@@H](OP(=O)(O)O)[C@H]1O)OC(=O)CCCCCCCCCCCCCCC [PtdIns-4,5-P2, phosphatidylinositol 4,5-diphosphate]",effectiveness as inhibitor,PtdIns 4-kinase [1],"Neither PtdIns-4-P or PtdIns-4,5-P2 were effective inhibitors"
same,inhibition,PtdIns 4-kinase [1],59%
same,Relative activity with potential inhibitor,PtdIns 4-kinase [1]; inhibitor 0.02 mg/ml,109%
same,Relative activity with potential inhibitor,PtdIns 4-kinase [1]; inhibitor 0.10 mg/ml,101%
same,Relative activity with potential inhibitor,PtdIns 4-kinase [1]; inhibitor 0.50 mg/ml,41%
same,Relative activity with lipid added,PtdIns 4-kinase [2],0%
same,phosphorylation of lipid by the purified enzyme,PtdIns 4-kinase [2],nor would it phosphorylate
"Nc1ncnc2c1ncn2[C@H]1C[C@H](O)[C@@H](COP(=O)(O)OP(=O)(O)OP(=O)(O)O)O1 [dATP, 2'-deoxy-ATP]",utilization as phosphoryl donor (words),PtdIns 4-kinase [3]; listed as 2'-deoxy-ATP,utilized
same,utilization as phosphoryl donor (words),PtdIns 4-kinase [3]; listed as 2-deoxy-ATP,utilized; also recorded: will utilize
same,activity at 150 µM,PtdIns 4-kinase [3]; [4],104%
O=c1ccn([C@@H]2O[C@H](COP(=O)(O)OP(=O)(O)OP(=O)(O)O)[C@@H](O)[C@H]2O)c(=O)[nH]1 [UTP],utilization as phosphoryl donor (words),PtdIns 4-kinase [3],A small amount of PtdIns-4-P was observed
same,activity at 150 µM,PtdIns 4-kinase [3]; [4],18%
L-α-phosphatidylethanolamine,Relative activity with lipid added,PtdIns 4-kinase [2],0%
same,phosphorylation of lipid by the purified enzyme,PtdIns 4-kinase [2],no phosphorylation
glucocerebrosides,Relative activity with lipid added,PtdIns 4-kinase [2],0%
same,phosphorylation of lipid by the purified enzyme,PtdIns 4-kinase [2],would not phosphorylate
Nc1ccn([C@@H]2O[C@H](COP(=O)(O)OP(=O)(O)OP(=O)(O)O)[C@@H](O)[C@H]2O)c(=O)n1 [CTP],utilization as phosphoryl donor (words),PtdIns 4-kinase [3],No PtdIns-4-P was observed; also recorded: No PtdIns-4-P 5-kinase activity was present
same,activity at 150 µM,PtdIns 4-kinase [3]; [4],10%
O=c1[nH]cnc2c1ncn2[C@@H]1O[C@H](COP(=O)(O)OP(=O)(O)OP(=O)(O)O)[C@@H](O)[C@H]1O [ITP],utilization as phosphoryl donor (words),PtdIns 4-kinase [3],No PtdIns-4-P was observed; also recorded: No PtdIns-4-P 5-kinase activity was present
same,activity at 150 µM,PtdIns 4-kinase [3]; [4],11%
Phosphatidylinositol [PtdIns (soybean)],Relative activity with lipid added,PtdIns 4-kinase [2],100%
same,phosphorylation of lipid by the purified enzyme,PtdIns 4-kinase [2],able to phosphorylate
"O=P(O)(O)O[C@H]1[C@H](O)[C@@H](O)[C@H](OP(=O)(O)O)[C@@H](O)[C@H]1O [Ins-1,4-P2]",effectiveness as inhibitor,PtdIns 4-kinase [1],ineffective as inhibitors
same,Relative activity with potential inhibitor,PtdIns 4-kinase [1]; inhibitor 1.0 mM,98%
galactocerebrosides (mixed),Relative activity with lipid added,PtdIns 4-kinase [2],0%
same,phosphorylation of lipid by the purified enzyme,PtdIns 4-kinase [2],would not phosphorylate
